We go through three compounds from PubChem BioAssay (NCI).

Among the test systems are BT-549 breast; K-562 leukemia; NCI-H23 lung; PC-3 prostate; HT29 colon; SK-MEL-5 melanoma; HCT-15 colon; MOLT-4 leukemia; SN12C renal; EKVX NSCLC.
Holding throughout (assay): inhibition of tumour cell growth, NCI panel, 48 h

Where “and” joins values, the source holds several entries; their conditions need not be identical. Equal entries are not always repeated.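 Step 1: Grow cells in 96-well plates. Step 2: Expose to compound for 48 hours at 5 concentrations. Step 3: Interpolate endpoints linearly; if unreached, use highest concentration. GI50 marks 50% less growth. TGI denotes the concentration required for complete inhibition of growth.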

For the compound `Cc1cc2c(F)c(Oc3ncnc(Nc4ccc(N5C[C@@H](C)N[C@@H](C)C5)cc4)c3C#N)cc(F)c2[nH]1`, the GI50 with BT-549 breast was 0.816 µM; with K-562 leukemia it was 1.62 µM; with NCI-H23 lung, 2.44 µM; in the assay on PC-3 prostate it was 3.05 µM; in the assay with HT29 colon, 0.583 µM; in the assay on SK-MEL-5 melanoma, 1.71 µM. Moreover, the GI50 in the assay with HCT-15 colon was 1.73 µM; in the assay on MOLT-4 leukemia, 1.67 µM; in the assay with SN12C renal it was 3.39 µM; with EKVX NSCLC, 3.39 µM. Moreover, the TGI is 2.38 µM in the assay with BT-549 breast; 3.83 µM with K-562 leukemia; 11.3 µM in the assay with NCI-H23 lung; 11.4 µM in the assay with PC-3 prostate; 2.49 µM in the assay on HT29 colon; 3.13 µM with SK-MEL-5 melanoma. The TGI in the assay with HCT-15 colon stood at 4.24 µM; in the assay on MOLT-4 leukemia, 5.44 µM; with SN12C renal, 14.3 µM; with EKVX NSCLC, 14.7 µM.

As for `O=C(O)c1cccc(S(=O)(=O)NCCO)c1`, the TGI in the assay with BT-549 breast, with K-562 leukemia, with NCI-H23 lung, with PC-3 prostate, with HT29 colon and with SK-MEL-5 melanoma was over 100 µM throughout. In addition, the TGI with HCT-15 colon, in the assay with MOLT-4 leukemia, in the assay with SN12C renal and in the assay with EKVX NSCLC was over 100 µM in each case.

On to `COc1ccc(Br)cc1NC(=O)Nc1cccc2c1ccn2Cc1ccnc(N)c1`, for which the GI50 is 11.7 µM and > 10 µM in the assay on BT-549 breast; 2.41 µM and 2.75 µM in the assay on K-562 leukemia; 14.5 µM and > 10 µM in the assay with NCI-H23 lung; 4.52 µM and 4.5 µM with PC-3 prostate; 2.59 µM and 2.24 µM in the assay on HT29 colon; 10.2 µM and 5.28 µM in the assay on SK-MEL-5 melanoma. Moreover, the GI50 is 2.44 µM and 2.94 µM in the assay on HCT-15 colon; 3.06 µM and 3.14 µM in the assay with MOLT-4 leukemia; 5.48 µM and 7.26 µM in the assay with SN12C renal; 7.36 µM and 9.64 µM in the assay with EKVX NSCLC. The TGI in the assay with BT-549 breast is 38.6 µM and > 10 µM; in the assay with K-562 leukemia it was 8.38 µM and > 10 µM; in the assay with NCI-H23 lung, 40.7 µM and > 10 µM; in the assay with PC-3 prostate, over 54.8 µM; with HT29 colon, 8.09 µM and > 10 µM; in the assay on SK-MEL-5 melanoma it was 23 µM and > 10 µM. Moreover, the TGI with HCT-15 colon was 6.31 µM and > 10 µM; in the assay on MOLT-4 leukemia, 18.9 µM and > 10 µM; in the assay with SN12C renal it was 30.8 µM and > 10 µM; in the assay on EKVX NSCLC, over 100 µM.
